Measurements taken from ChEMBL document CHEMBL1201861, “Genomics of Drug Sensitity in Cancer screening data, Wellcome Trust Sanger Institute”.

Key:
Test in all cases: cells
Format in all cases: functional, cell-based
Conditions in all cases: Homo sapiens
COR-L105 = system: COR-L105;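 also: cell growth inhibition determined with a viability assay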
Description: SANGER: Inhibition of human COR-L105 cell growth in a cell viability assay.

CP50-MEL-B = system: CP50-MEL-B;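 also: growth inhibition of the human cell line, measured with a cell viability read-out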
Description: SANGER: Inhibition of human CP50-MEL-B cell growth in a cell viability assay.

DBTRG-05MG = system: DBTRG-05MG;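 also: cell viability assay measuring growth inhibition of human DBTRG-05MG cells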
Description: SANGER: Inhibition of human DBTRG-05MG cell growth in a cell viability assay.

DMS-273 = system: DMS-273
Description: SANGER: Inhibition of human DMS-273 cell growth in a cell viability assay.

DOK = system: DOK;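 also: cell viability assay read-out, values reflect inhibition of cell growth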
Description: SANGER: Inhibition of human DOK cell growth in a cell viability assay.

FTC-133 = system: FTC-133
G-361 = system: G-361
HCC1395 = system: HCC1395;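 also: growth inhibition of HCC1395 cells, read out by a cell viability assay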
Description: SANGER: Inhibition of human HCC1395 cell growth in a cell viability assay.

Hs-578T = system: Hs-578T
Description: SANGER: Inhibition of human Hs-578-T cell growth in a cell viability assay.

KYSE-140 = system: KYSE-140;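 also: cell viability assay measuring growth inhibition in human KYSE-140 cells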
Description: SANGER: Inhibition of human KYSE-140 cell growth in a cell viability assay.

LN-405 = system: LN-405
Description: SANGER: Inhibition of human LN-405 cell growth in a cell viability assay.

LU-99A = system: LU-99A;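 also: growth inhibition of LU-99A cells, read out with a cell viability assay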
Description: SANGER: Inhibition of human LU-99A cell growth in a cell viability assay.

MDA-MB-453 = system: MDA-MB-453
Description: SANGER: Inhibition of human MDA-MB-453 cell growth in a cell viability assay.

MHH-ES-1 = system: MHH-ES-1;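 also: cell growth inhibition measured by a cell viability assay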
Description: SANGER: Inhibition of human MHH-ES-1 cell growth in a cell viability assay.

MKN-28 = system: MKN-28;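 also: cell viability assay read-out, IC50 reflects suppression of growth of human MKN-28 cells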
Description: SANGER: Inhibition of human MKN28 cell growth in a cell viability assay.

MKN-7 = system: MKN-7;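 also: growth inhibition of MKN-7 cells, read out with a cell viability assay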
Description: SANGER: Inhibition of human MKN7 cell growth in a cell viability assay.

NCI-H1573 = system: NCI-H1573;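 also: growth inhibition of NCI-H1573 cells, read out with a cell viability assay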
Description: SANGER: Inhibition of human NCI-H1573 cell growth in a cell viability assay.

NCI-H1651 = system: NCI-H1651;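 also: Read-out is a cell viability assay, with IC50 expressing inhibition of NCI-H1651 cell growth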
Description: SANGER: Inhibition of human NCI-H1651 cell growth in a cell viability assay.

NCI-H1993 = system: NCI-H1993;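 also: growth inhibition of the cancer cell line, assessed with a cell viability assay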
Description: SANGER: Inhibition of human NCI-H1993 cell growth in a cell viability assay.

NCI-H2030 = system: NCI-H2030;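 also: growth inhibition of human NCI-H2030 cells, read out by a cell viability assay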
Description: SANGER: Inhibition of human NCI-H2030 cell growth in a cell viability assay.

NCI-H2342 = system: NCI-H2342;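 also: growth inhibition of the cancer cell line, determined with a cell viability assay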
Description: SANGER: Inhibition of human NCI-H2342 cell growth in a cell viability assay.

NCI-H520 = system: NCI-H520;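 also: growth inhibition of NCI-H520 cells, measured by a cell viability assay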
Description: SANGER: Inhibition of human NCI-H520 cell growth in a cell viability assay.

NCI-H661 = system: NCI-H661;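 also: cell viability assay read-out, IC50 being the concentration that inhibits growth of the cells by half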
Description: SANGER: Inhibition of human NCI-H661 cell growth in a cell viability assay.

NUGC-3 = system: NUGC-3;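 also: growth inhibition of human NUGC-3 cells, read out with a cell viability assay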
Description: SANGER: Inhibition of human NUGC-3 cell growth in a cell viability assay.

OE33 = system: OE33;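 also: growth inhibition of human OE33 cells, measured by a cell viability assay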
Description: SANGER: Inhibition of human OE33 cell growth in a cell viability assay.

Panc1005 = system: Panc1005;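 also: growth inhibition of human PANC-10-05 cells, measured by a cell viability assay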
Description: SANGER: Inhibition of human PANC-10-05 cell growth in a cell viability assay.

SBC-5 = system: SBC-5;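 also: cell viability assay read-out, IC50 is the concentration that inhibits growth of the cells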
Description: SANGER: Inhibition of human SBC-5 cell growth in a cell viability assay.

SK-MEL-28 = system: SK-MEL-28;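 also: growth inhibition of human SK-MEL-28 cells, read out with a cell viability assay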
Description: SANGER: Inhibition of human SK-MEL-28 cell growth in a cell viability assay.

SKG-IIIa = system: SKG-IIIa;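 also: cell growth inhibition, read out with a cell viability assay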
Description: SANGER: Inhibition of human SKG-IIIa cell growth in a cell viability assay.

SW626 = system: SW626;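 also: growth inhibition of SW626 cells, measured with a cell viability assay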
Description: SANGER: Inhibition of human SW626 cell growth in a cell viability assay.

SW837 = system: SW837;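 also: growth inhibition of SW837 cells, determined with a cell viability assay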
Description: SANGER: Inhibition of human SW837 cell growth in a cell viability assay.

T-24 = system: T-24;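 also: growth inhibition of T-24 cells, read out with a cell viability assay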
Description: SANGER: Inhibition of human T-24 cell growth in a cell viability assay.

T98G = system: T98G;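 also: growth inhibition of T98G cells, read out by a cell viability assay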
Description: SANGER: Inhibition of human T98G cell growth in a cell viability assay.

786-0 = system: 786-0
Description: SANGER: Inhibition of human 786-0 cell growth in a cell viability assay.

8505C = system: 8505C
Description: SANGER: Inhibition of human 8505C cell growth in a cell viability assay.

A-375 = system: A-375;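 also: growth inhibition of A375 cells, read out with a cell viability assay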
Description: SANGER: Inhibition of human A375 cell growth in a cell viability assay.

A-427 = system: A-427;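 also: growth inhibition of human A-427 cells, read out by a cell viability assay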
Description: SANGER: Inhibition of human A427 cell growth in a cell viability assay.

A-431 = system: A-431;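 also: growth inhibition of A-431 cells, determined with a cell viability read-out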
Description: SANGER: Inhibition of human A431 cell growth in a cell viability assay.

A673 = system: A673;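 also: growth inhibition of human A673 cells, read out through a cell viability assay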
Description: SANGER: Inhibition of human A673 cell growth in a cell viability assay.

BHT-101 = system: BHT-101
Description: SANGER: Inhibition of human BHT-101 cell growth in a cell viability assay.

BHY = system: BHY;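 also: cell growth inhibition read out by a viability assay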
Description: SANGER: Inhibition of human BHY cell growth in a cell viability assay.

CAL-33 = system: CAL-33;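 also: growth inhibition of CAL-33 cells, read out with a cell viability assay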
Description: SANGER: Inhibition of human CAL-33 cell growth in a cell viability assay.

CAL-54 = system: CAL-54;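 also: growth inhibition of CAL-54 cells, read out by a viability measurement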
Description: SANGER: Inhibition of human CAL-54 cell growth in a cell viability assay.

WM-115 = system: WM-115
Description: SANGER: Inhibition of human WM-115 cell growth in a cell viability assay.

CHL-1 = system: CHL-1;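 also: cell growth inhibition, read out with a cell viability assay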
Description: SANGER: Inhibition of human CHL-1 cell growth in a cell viability assay.

COc1cc(Nc2c(C#N)cnc3cc(OCCCN4CCN(C)CC4)c(OC)cc23)c(Cl)cc1Cl [BOSUTINIB]
IC50 (COR-L105): 1000 nM
IC50 (CP50-MEL-B): > 2000 nM
IC50 (DBTRG-05MG): > 2000 nM
IC50 (DMS-273): > 2000 nM
IC50 (DOK): 378 nM
IC50 (FTC-133): > 2000 nM
IC50 (G-361): > 2000 nM
IC50 (HCC1395): > 2000 nM
IC50 (Hs-578T): > 2000 nM
IC50 (KYSE-140): 1760 nM
IC50 (LN-405): > 2000 nM
IC50 (LU-99A): > 2000 nM
IC50 (MDA-MB-453): > 2000 nM
IC50 (MHH-ES-1): > 2000 nM
IC50 (MKN-28): > 2000 nM
IC50 (MKN-7): > 2000 nM
IC50 (NCI-H1573): > 2000 nM
IC50 (NCI-H1651): > 2000 nM
IC50 (NCI-H1993): > 2000 nM
IC50 (NCI-H2030): > 2000 nM
IC50 (NCI-H2342): > 2000 nM
IC50 (NCI-H520): > 2000 nM
IC50 (NCI-H661): > 2000 nM
IC50 (NUGC-3): 1290 nM
IC50 (OE33): > 2000 nM
IC50 (Panc1005): > 2000 nM
IC50 (SBC-5): > 2000 nM
IC50 (SK-MEL-28): > 2000 nM
IC50 (SKG-IIIa): > 2000 nM
IC50 (SW626): > 2000 nM
IC50 (SW837): > 2000 nM
IC50 (T-24): > 2000 nM
IC50 (T98G): > 2000 nM
IC50 (786-0): > 2000 nM
IC50 (8505C): > 2000 nM
IC50 (A-375): 1520 nM
IC50 (A-427): > 2000 nM
IC50 (A-431): > 2000 nM
IC50 (A673): > 2000 nM
IC50 (BHT-101): 466 nM
IC50 (BHY): 1230 nM
IC50 (CAL-33): 1190 nM
IC50 (CAL-54): 1660 nM
IC50 (WM-115): > 2000 nM
IC50 (CHL-1): 555 nM

CC[C@@]1(O)C(=O)OCc2c1cc1n(c2=O)Cc2cc3ccccc3nc2-1 [CAMPTOTHECIN]
IC50 (CP50-MEL-B): 72.1 nM
IC50 (DBTRG-05MG): 40.9 nM
IC50 (DMS-273): 6.07 nM
IC50 (DOK): 18.9 nM
IC50 (FTC-133): 4.57 nM
IC50 (G-361): > 100 nM
IC50 (HCC1395): > 100 nM
IC50 (KYSE-140): 69.7 nM
IC50 (LN-405): > 100 nM
IC50 (LU-99A): 3.85 nM
IC50 (MDA-MB-453): 6.97 nM
IC50 (MHH-ES-1): 0.129 nM
IC50 (MKN-28): 51.2 nM
IC50 (NCI-H1651): 14.9 nM
IC50 (NCI-H1993): > 100 nM
IC50 (NCI-H2030): 48.5 nM
IC50 (NCI-H2342): > 100 nM
IC50 (NCI-H661): 13.6 nM
IC50 (NUGC-3): 3.14 nM
IC50 (OE33): 25.6 nM
IC50 (Panc1005): 19.7 nM
IC50 (SBC-5): 32.1 nM
IC50 (SK-MEL-28): 17.1 nM
IC50 (SKG-IIIa): 4.58 nM
IC50 (SW626): 76.9 nM
IC50 (SW837): 48.9 nM
IC50 (T-24): 1.61 nM
IC50 (T98G): 27.2 nM
IC50 (786-0): 5.02 nM
IC50 (8505C): 3.3 nM
IC50 (A-375): 3.69 nM
IC50 (A-427): 4.25 nM
IC50 (A-431): > 100 nM
IC50 (A673): 0.815 nM
IC50 (BHT-101): 1.82 nM
IC50 (BHY): 5.31 nM
IC50 (CAL-33): 6 nM
IC50 (CAL-54): 4.76 nM
IC50 (CHL-1): 6.09 nM

Cn1c(=O)n(-c2ccc(C(C)(C)C#N)cc2)c2c3cc(-c4cnc5ccccc5c4)ccc3ncc21 [DACTOLISIB]
IC50 (COR-L105): 15 nM
IC50 (CP50-MEL-B): 77.4 nM
IC50 (DBTRG-05MG): 198 nM
IC50 (DMS-273): 60.9 nM
IC50 (DOK): 56 nM
IC50 (FTC-133): 25.1 nM
IC50 (HCC1395): 698 nM
IC50 (Hs-578T): 24.6 nM
IC50 (KYSE-140): 50.6 nM
IC50 (LN-405): 63.9 nM
IC50 (LU-99A): 117 nM
IC50 (MDA-MB-453): > 2000 nM
IC50 (MHH-ES-1): 51.9 nM
IC50 (MKN-28): 1090 nM
IC50 (MKN-7): 124 nM
IC50 (NCI-H1573): 87.5 nM
IC50 (NCI-H1651): 344 nM
IC50 (NCI-H1993): > 2000 nM
IC50 (NCI-H2030): 21.5 nM
IC50 (NCI-H2342): 590 nM
IC50 (NCI-H520): 83.1 nM
IC50 (NCI-H661): 151 nM
IC50 (NUGC-3): 16.3 nM
IC50 (OE33): 189 nM
IC50 (Panc1005): 246 nM
IC50 (SBC-5): 83.5 nM
IC50 (SK-MEL-28): 112 nM
IC50 (SKG-IIIa): 129 nM
IC50 (SW626): 176 nM
IC50 (SW837): 1330 nM
IC50 (T-24): 43.8 nM
IC50 (T98G): 29.9 nM
IC50 (786-0): 22.3 nM
IC50 (8505C): 37.5 nM
IC50 (A-375): 23.9 nM
IC50 (A-427): 183 nM
IC50 (A-431): 90 nM
IC50 (A673): > 2000 nM
IC50 (BHT-101): 30 nM
IC50 (BHY): 42.7 nM
IC50 (CAL-33): 85.1 nM
IC50 (CAL-54): 238 nM
IC50 (WM-115): 68.1 nM
IC50 (CHL-1): 15.5 nM

CC(=O)c1c(C)c2cnc(Nc3ccc(N4CCNCC4)cn3)nc2n(C2CCCC2)c1=O [PALBOCICLIB]
IC50 (COR-L105): > 4000 nM
IC50 (CP50-MEL-B): > 4000 nM
IC50 (DBTRG-05MG): > 4000 nM
IC50 (DMS-273): > 4000 nM
IC50 (DOK): > 4000 nM
IC50 (FTC-133): > 4000 nM
IC50 (HCC1395): > 4000 nM
IC50 (Hs-578T): 1260 nM
IC50 (KYSE-140): > 4000 nM
IC50 (LN-405): > 4000 nM
IC50 (LU-99A): > 4000 nM
IC50 (MDA-MB-453): > 4000 nM
IC50 (MHH-ES-1): 1180 nM
IC50 (MKN-7): > 4000 nM
IC50 (NCI-H1573): 2070 nM
IC50 (NCI-H1651): > 4000 nM
IC50 (NCI-H1993): > 4000 nM
IC50 (NCI-H2342): > 4000 nM
IC50 (NCI-H520): 747 nM
IC50 (NCI-H661): > 4000 nM
IC50 (NUGC-3): 2830 nM
IC50 (OE33): > 4000 nM
IC50 (Panc1005): > 4000 nM
IC50 (SBC-5): > 4000 nM
IC50 (SKG-IIIa): > 4000 nM
IC50 (SW626): > 4000 nM
IC50 (T-24): 779 nM
IC50 (T98G): 2010 nM
IC50 (786-0): 2150 nM
IC50 (8505C): > 4000 nM
IC50 (A-427): > 4000 nM
IC50 (A-431): > 4000 nM
IC50 (A673): > 4000 nM
IC50 (BHT-101): 198 nM
IC50 (BHY): 1470 nM
IC50 (CAL-33): > 4000 nM
IC50 (CAL-54): 2200 nM
IC50 (WM-115): > 4000 nM
IC50 (CHL-1): > 4000 nM
